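96-well plates; 48 h exposure; 5 concentrations. Endpoints by linear interpolation between flanking doses. Not reached: highest tested concentration assigned. TGI denotes the concentration required for complete inhibition of growth.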
Experiments:
Experiment in all cases: DTP human tumour cell line panel, 48 h
MDA-MB-435 = tested on: MDA-MB-435
UACC-257 melanoma = tested on: UACC-257 melanoma
HOP-62 NSCLC = tested on: HOP-62 NSCLC
SF-539 CNS = tested on: SF-539 CNS
T-47D breast = tested on: T-47D breast
IGROV1 ovarian = tested on: IGROV1 ovarian
K-562 leukemia = tested on: K-562 leukemia
HOP-92 NSCLC = tested on: HOP-92 NSCLC
ACHN renal = tested on: ACHN renal
786-0 renal = tested on: 786-0 renal
NCI-H23 lung = tested on: NCI-H23 lung
COLO 205 colon = tested on: COLO 205 colon
SK-MEL-5 melanoma = tested on: SK-MEL-5 melanoma
SF-295 CNS = tested on: SF-295 CNS
TK-10 renal = tested on: TK-10 renal
MOLT-4 leukemia = tested on: MOLT-4 leukemia
BT-549 breast = tested on: BT-549 breast
RXF 393 renal = tested on: RXF 393 renal
KM12 colon = tested on: KM12 colon
SNB-78 CNS = tested on: SNB-78 CNS

| SMILES | TGI (MDA-MB-435) | TGI (UACC-257 melanoma) | TGI (HOP-62 NSCLC) | TGI (SF-539 CNS) | TGI (T-47D breast) | TGI (IGROV1 ovarian) | TGI (K-562 leukemia) | TGI (HOP-92 NSCLC) | TGI (ACHN renal) | TGI (786-0 renal) | TGI (NCI-H23 lung) | TGI (COLO 205 colon) | TGI (SK-MEL-5 melanoma) | TGI (SF-295 CNS) | TGI (TK-10 renal) | TGI (MOLT-4 leukemia) | TGI (BT-549 breast) | TGI (RXF 393 renal) | TGI (KM12 colon) | TGI (SNB-78 CNS) |
| --- | --- | --- | --- | --- | --- | --- | --- | --- | --- | --- | --- | --- | --- | --- | --- | --- | --- | --- | --- | --- |
| CC(C)NCCC(O)c1cc2ccccc2o1 (configuration not stated) | > 100 µM | > 100 µM | > 100 µM | > 100 µM | > 100 µM | > 100 µM | > 100 µM | > 100 µM | > 100 µM | > 100 µM | > 100 µM | > 100 µM | > 100 µM | > 100 µM | > 100 µM | 49.2 µM | > 100 µM | > 100 µM | > 100 µM | – |
| O=C1/C(=C/c2ccc(Cl)cc2)N=C(c2ccccc2)N1c1ccc(S(=O)(=O)Nc2nccs2)cc1 | 76.4 µM | > 100 µM | > 100 µM | > 100 µM | 75.2 µM | – | > 100 µM | 90.7 µM | > 100 µM | > 100 µM | > 100 µM | 40.7 µM | 66.6 µM | > 100 µM | > 100 µM | 83.2 µM | – | > 100 µM | > 100 µM | – |
| NC(CCOCCP(=O)(O)CCOCCC(N)C(=O)O)C(=O)O (configuration not stated) | > 100 µM | > 100 µM | – | > 100 µM | > 100 µM | > 100 µM | > 100 µM | > 100 µM | > 100 µM | – | > 100 µM | > 100 µM | > 100 µM | > 100 µM | > 100 µM | > 100 µM | – | > 100 µM | > 100 µM | – |
| COc1cccc(CC2Cc3ccccc3CC(=O)N2)c1 (configuration not stated) | > 100 µM | > 100 µM | 72.5 µM | > 100 µM | > 100 µM | > 100 µM | > 100 µM | > 100 µM | > 100 µM | – | > 100 µM | > 100 µM | 54.6 µM | > 100 µM | > 100 µM | > 100 µM | 92.1 µM | > 100 µM | > 100 µM | – |
| C=CCOC(=O)[C@@H]1C[C@@H](OC(C)(C)C)CN1C(=O)[C@@H]1[C@H]2OC(C)(C)O[C@H]2CN1C(=O)OCC1c2ccccc2-c2ccccc21 | 34.7 µM | 35.4 µM | 4.51 µM | 28.9 µM | 45 µM | 37.6 µM | > 56.9 µM | 35 µM | 30.1 µM | 9.97 µM | 33.9 µM | 45.7 µM | 37 µM | 34.4 µM | 32.5 µM | 34.4 µM | 37.1 µM | 24.7 µM | 11 µM | – |
| OC1CN2Cc3cc4c(cc3[C@]13C=C[C@@H](O)CC23)OCO4 (some centres not stated) | > 100 µM | 34.9 µM | > 100 µM | > 100 µM | 31.2 µM | > 100 µM | > 100 µM | 86.8 µM | > 100 µM | > 100 µM | > 100 µM | > 100 µM | > 100 µM | > 100 µM | 93.3 µM | > 100 µM | > 100 µM | 58.6 µM | > 100 µM | – |
| CC(C)C1OC(/C=C/c2ccccc2)OCC1(C)C (configuration not stated) | > 100 µM | 63.6 µM | > 100 µM | – | > 100 µM | > 100 µM | > 100 µM | 52.5 µM | > 100 µM | > 100 µM | 98.9 µM | 31.2 µM | 37.5 µM | > 100 µM | 80.8 µM | – | > 100 µM | 42.3 µM | > 100 µM | – |
| c1ccc(-c2nnc(-c3nsc4ccccc34)o2)cc1 | – | > 100 µM | > 100 µM | > 100 µM | – | > 100 µM | > 100 µM | > 100 µM | – | – | > 100 µM | > 100 µM | > 100 µM | – | > 100 µM | > 100 µM | – | > 100 µM | > 100 µM | > 100 µM |
| CCOC(=O)C1=C(C)N(NC(N)=O)C2(O)CCCC(=O)C12C (configuration not stated) | – | > 100 µM | – | > 100 µM | – | > 100 µM | – | > 100 µM | > 100 µM | – | > 100 µM | > 100 µM | > 100 µM | > 100 µM | > 100 µM | – | – | > 100 µM | > 100 µM | > 100 µM |

— PubChem BioAssay (NCI)
